Measurements: patent publication US20260183302A1, “PDK1 REGULATORY COMPOUND AND COMPOSITION CONTAINING THE SAME” (PROVIBIO CO., LTD., priority 2024, published 2026)
Entries after “also recorded” stand apart in the source; their conditions may differ.

Experiments:
[1] = tested on: PDK1 phosphorylation in SU-DHL-8 cells; assay: PDK1 phosphorylation inhibition by flow cytometry (pPDK1-PE) in SU-DHL-8 cells; format: cell-based, human; conditions: SU-DHL-8, 24 hours, vs control group
Experimental: After stabilizing the cells, the compound of the present invention was added, and the cells were cultured for 24 hours.
After drug treatment, the cells were harvested, and the Fc receptor blocking process was performed. The cells were then fixed and permeabilized using the Intracellular Staining Kit (Cat. No. BD554715) from BD Biosciences. Subsequently, the intracellular pPDK1 was stained using the pPDK1-PE fluorescently labeled antibody (BD Biosciences).
Referring to the figure, the vertical axis represents the phosphorylation level of PDK1 (phospho-PDK1 expression level), and the horizontal axis denotes the concentration-dependent treatment conditions of each compound.

psoriasis-induced mice = assay: In vivo psoriasis model (Aldara cream, Imiquimod); set-up: species or system BALB/c mice
Experimental: To verify the therapeutic effect of the compound according to the present invention on psoriasis, a psoriasis animal model was established as follows, and the compound according to the present invention was administered to evaluate the alleviation of skin lesions and changes in immune cell patterns.
For the establishment of the psoriasis animal model, BALB/c mice (7 weeks old, female, 20 g) were purchased from HanabioTech Co., Ltd. and acclimatized to the rearing environment for one week.
Subsequently, the hair on the mouse back was shaved using a hair removal device for the first time, and then completely shaved using a depilatory cream (Nicrin Cream (80% thioglycolic acid, Il Dong Pharmaceutical)) for the second time. The mice were then kept for 24 hours to confirm the absence of skin damage.
To verify the psoriasis prevention and therapeutic effects of the compounds according to the present invention, the following experimental groups were established:
[Normal control group (Normal, Not Treatment), psoriasis-induced control group (Psoriasis, Not Treatment), psoriasis-induced vehicle control group (Psoriasis, Vehicle), experimental group (GO85, GO86, GO88, GO89, PBK-2024-010, PBK-2024-026, PBK-2025-002, PBK-2025-004, PBK-2025-016, PBK-2025-017, PBK-2025-023)]. […]
Body weights of mice in each group were measured on days 1, 4, and 8 after the start of injection and psoriasis induction. […]
To evaluate the therapeutic effect in a psoriasis-induced mouse model, the PASI (Psoriasis Area and Severity Index) score was measured.
The PASI score is based on three criteria: erythema, scaling, and skin thickness, each scored from 0 (none) to 4 (severe). […]
Observations were conducted daily at the same time, and the same observer visually assessed each criterion and recorded the scores, with the results presented in FIG. 13. […]
All samples were measured in duplicate, and the absorbance was measured at 450 nm using a microplate reader.

[2] = tested on: pulmonary fibrosis-induced mice; assay: Bleomycin-induced pulmonary fibrosis animal model; format: in vivo, Balb/c mice; conditions: bleomycin mice lung, vs BLM-treated group
Description: To evaluate the therapeutic efficacy of the compound according to the present invention against pulmonary fibrosis, an animal model of pulmonary fibrosis induced by bleomycin intratracheal administration was established.
For this purpose, 8-week-old male Balb/c mice were subjected to general anesthesia using an inhalation anesthetic (2-3% isoflurane in oxygen), followed by disinfection of the neck region, skin incision, and exposure of the trachea.
Bleomycin (Sigma-Aldrich, USA) was directly administered into the trachea at a concentration of 5 mg/kg in a solution of 100 μL.
Two days prior to Bleomycin administration, the compound of the present invention or the comparative drug was administered intraperitoneally at the specified concentration and dose, and the administration was continued once daily for a total of 14 days.
The experimental groups included Normal, Bleomycin alone (BLM), and BLM plus the compound of the present invention (BLM+GO88, 0.2 mg/kg).
Ten days later, the mice were euthanized humanely using carbon dioxide gas, the trachea was incised, and PBS was injected into the trachea to remove blood from the lungs.
The lung tissue washed with PBS was excised, fixed in 4% paraformaldehyde solution for 24 hours, and then paraffin blocks and tissue sections were prepared. The prepared sections were subjected to pathological analysis using H&E, Masson's trichrome, and Sirius red staining.
Additionally, immunohistochemical (IHC) staining was performed for α-SMA (α-smooth muscle actin), an indicator of lung fibroblast activation.

[3] = tested on: MRL/lpr mice with hair loss in the facial region; assay: Hair loss treatment and hair follicle Ki-67 IHC in MRL/lpr mice; format: in vivo; conditions: 41-week-old female MRL/lpr; GO15F (30 mg/kg), GO48 (1 mg/kg), GO88 (0.5 mg/kg) intraperitoneal once daily
Experimental: Additionally, in 41-week-old female MRL/Ipr mice, the compounds GO15F (30 mg/kg), GO48 (1 mg/kg), and GO88 (0.5 mg/kg) were administered intraperitoneally once daily.
To confirm the proliferative activity of hair follicle cells in the skin tissue of these mice, the mice were sacrificed 14 days after administration of the compounds of the present invention, and Ki-67 immunohistochemistry (IHC) was performed.
For this purpose, the excised skin tissue was fixed in formalin, embedded in paraffin blocks, and stained with a Ki-67-specific antibody on tissue sections prepared as slides.

Compound	phospho-PDK1 expression level ([1]; listed as GO86)	efficacy in improving dermatological symptoms (psoriasis-induced mice)	phospho-PDK1 expression level ([1]; listed as GO88)	collagen deposition (Masson's trichrome and Sirius red staining) [2]	expression of α-SMA (IHC) [2]	hair growth on the facial region [3]	phospho-PDK1 expression level [1]
12-[4-(2,2-dimethylmorpholin-4-yl)]dodecyl-N-(6-aminopurine-2-yl) carboxamide [Compound 11]	stronger PDK1 inhibition; also recorded: high inhibitory effects even at low concentrations	excellent efficacy in improving dermatological symptoms	–	–	–	–	–
Nc1ncccc1C(=O)NCCCCCCCCCCCCN1CCNCC1 [Compound 14, 2-Amino-N-(12-(piperazin-1-yl)dodecyl)nicotinamide]	–	excellent efficacy in improving dermatological symptoms	stronger PDK1 inhibition; also recorded: high inhibitory effects even at low concentrations	significantly reduced	significantly suppressed	hair growth was confirmed	–
Nc1ncccc1C(=O)NCCCCCCCCCCCCF [Compound 57, 2-Amino-N-(12-fluoro-dodecyl)-nicotinamide]	–	–	–	significantly reduced	significantly suppressed	hair growth was confirmed	inhibitory effect on PDK1 phosphorylation
